According to patent US9340555B2, “Compounds as tyrosine kinase modulators” (Allergan, Inc., priority 2009, dated 2016):

How the values were obtained:
VEGFR2 = VEGFR2 (Homo sapiens (Human), UniProt P35968); assay: VEGF Stimulated Ca++ Signal In Vitro (Cellular VEGFR2, FLIPR); assay type: cell-based; settings: HUVEC, VEGF stimulation (5 ng/mL), intracellular calcium
[1] = target: human VEGF receptor (VEGFR-2) (Homo sapiens (Human), UniProt P35968); assay: VEGFR2 Kinase Assay (Enzymic VEGFR2); assay type: biochemical; settings: His-VEGFR-2 cytoplasmic domain, 3.6 µM ATP
human VEGF receptor (VEGFR-2), sequence (P35968 786-1356): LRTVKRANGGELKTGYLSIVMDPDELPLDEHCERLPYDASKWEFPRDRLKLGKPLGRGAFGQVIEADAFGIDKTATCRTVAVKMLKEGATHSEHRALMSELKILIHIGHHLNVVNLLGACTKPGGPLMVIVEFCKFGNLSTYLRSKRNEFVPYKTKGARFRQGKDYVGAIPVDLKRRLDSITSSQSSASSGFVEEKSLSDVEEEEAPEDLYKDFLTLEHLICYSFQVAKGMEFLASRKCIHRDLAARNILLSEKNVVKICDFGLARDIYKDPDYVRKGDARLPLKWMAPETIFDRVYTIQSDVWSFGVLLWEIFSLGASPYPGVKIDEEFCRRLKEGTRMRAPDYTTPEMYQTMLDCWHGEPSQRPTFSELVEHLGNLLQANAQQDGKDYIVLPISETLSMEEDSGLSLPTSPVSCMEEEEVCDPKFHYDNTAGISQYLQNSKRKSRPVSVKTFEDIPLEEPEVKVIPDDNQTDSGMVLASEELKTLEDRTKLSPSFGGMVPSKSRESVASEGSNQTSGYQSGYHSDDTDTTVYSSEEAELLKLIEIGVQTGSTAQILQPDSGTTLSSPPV
Experimental: VEGFR2 Kinase Assay The cytoplasmic domain of the human VEGF receptor (VEGFR-2) was expressed as a Histidine-tagged fusion protein following infection of insect cells using an His engineered baculovirus. […] Kinase assays were performed in 96 well microtiter plates that were coated overnight with 30 µg of poly-Glu-[…]:1) in 10 mM Phosphate Buffered Saline (PBS), pH 7.2-7.4. The plates were incubated with 1% BSA and then washed four times with PBS prior to starting the reaction. […] Reactions were initiated by the addition 0.5 ng of purified protein. Following a ten minute incubation at 25° C., the reactions were washed four times with PBS containing 0.05% Tween-20. 100 µl of a monoclonal anti-phosphotyrosine antibody-peroxidase conjugate was diluted 1:10000 in PBS-Tween-20 and added to the wells for 30 minutes. Following four washes with PBS-Tween-20, 100 µl of 0-phenylenediamine Dihydrochloride in Phosphate-citrate buffer, containing urea hydrogen peroxide, was added to the wells for 7 minutes as a colorimetric substrate for the peroxidase. […] IC50 values for compound inhibition were calculated directly from graphs of optical density (arbitrary units) versus compound concentration following subtraction of blank values.

PDGFRβ = PDGFRβ (Homo sapiens (Human), UniProt P09619); assay: Enzymic PDGFRβ; assay type: biochemical
PDGFRβ, sequence (P09619 33-1106, species assumed): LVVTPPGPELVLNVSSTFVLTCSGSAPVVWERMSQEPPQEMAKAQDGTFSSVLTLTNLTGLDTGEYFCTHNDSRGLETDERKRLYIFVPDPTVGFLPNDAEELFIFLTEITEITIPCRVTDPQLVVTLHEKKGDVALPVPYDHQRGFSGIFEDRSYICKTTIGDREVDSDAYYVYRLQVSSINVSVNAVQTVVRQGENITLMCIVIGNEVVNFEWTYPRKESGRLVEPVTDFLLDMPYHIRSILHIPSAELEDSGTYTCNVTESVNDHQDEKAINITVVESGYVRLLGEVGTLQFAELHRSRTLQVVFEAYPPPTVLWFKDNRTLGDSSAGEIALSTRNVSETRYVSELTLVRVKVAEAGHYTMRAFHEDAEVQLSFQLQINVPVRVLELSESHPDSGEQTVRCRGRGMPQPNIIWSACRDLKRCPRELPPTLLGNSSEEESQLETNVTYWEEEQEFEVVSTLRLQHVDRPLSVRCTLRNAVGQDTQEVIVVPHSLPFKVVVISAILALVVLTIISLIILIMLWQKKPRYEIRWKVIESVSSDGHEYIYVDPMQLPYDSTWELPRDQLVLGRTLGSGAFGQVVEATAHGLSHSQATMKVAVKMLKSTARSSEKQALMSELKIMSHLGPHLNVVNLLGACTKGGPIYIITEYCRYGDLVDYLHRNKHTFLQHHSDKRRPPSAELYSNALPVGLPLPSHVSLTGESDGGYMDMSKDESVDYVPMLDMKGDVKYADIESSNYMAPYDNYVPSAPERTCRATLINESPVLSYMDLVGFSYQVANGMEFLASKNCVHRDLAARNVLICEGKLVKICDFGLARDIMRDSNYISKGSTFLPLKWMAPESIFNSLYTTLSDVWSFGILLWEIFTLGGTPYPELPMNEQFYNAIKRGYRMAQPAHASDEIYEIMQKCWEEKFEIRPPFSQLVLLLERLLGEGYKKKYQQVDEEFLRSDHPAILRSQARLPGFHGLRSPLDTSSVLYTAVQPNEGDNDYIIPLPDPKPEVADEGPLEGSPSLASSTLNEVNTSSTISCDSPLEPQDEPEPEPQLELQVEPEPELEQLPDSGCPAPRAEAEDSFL

VEGFR2, sequence (P35968 20-1356): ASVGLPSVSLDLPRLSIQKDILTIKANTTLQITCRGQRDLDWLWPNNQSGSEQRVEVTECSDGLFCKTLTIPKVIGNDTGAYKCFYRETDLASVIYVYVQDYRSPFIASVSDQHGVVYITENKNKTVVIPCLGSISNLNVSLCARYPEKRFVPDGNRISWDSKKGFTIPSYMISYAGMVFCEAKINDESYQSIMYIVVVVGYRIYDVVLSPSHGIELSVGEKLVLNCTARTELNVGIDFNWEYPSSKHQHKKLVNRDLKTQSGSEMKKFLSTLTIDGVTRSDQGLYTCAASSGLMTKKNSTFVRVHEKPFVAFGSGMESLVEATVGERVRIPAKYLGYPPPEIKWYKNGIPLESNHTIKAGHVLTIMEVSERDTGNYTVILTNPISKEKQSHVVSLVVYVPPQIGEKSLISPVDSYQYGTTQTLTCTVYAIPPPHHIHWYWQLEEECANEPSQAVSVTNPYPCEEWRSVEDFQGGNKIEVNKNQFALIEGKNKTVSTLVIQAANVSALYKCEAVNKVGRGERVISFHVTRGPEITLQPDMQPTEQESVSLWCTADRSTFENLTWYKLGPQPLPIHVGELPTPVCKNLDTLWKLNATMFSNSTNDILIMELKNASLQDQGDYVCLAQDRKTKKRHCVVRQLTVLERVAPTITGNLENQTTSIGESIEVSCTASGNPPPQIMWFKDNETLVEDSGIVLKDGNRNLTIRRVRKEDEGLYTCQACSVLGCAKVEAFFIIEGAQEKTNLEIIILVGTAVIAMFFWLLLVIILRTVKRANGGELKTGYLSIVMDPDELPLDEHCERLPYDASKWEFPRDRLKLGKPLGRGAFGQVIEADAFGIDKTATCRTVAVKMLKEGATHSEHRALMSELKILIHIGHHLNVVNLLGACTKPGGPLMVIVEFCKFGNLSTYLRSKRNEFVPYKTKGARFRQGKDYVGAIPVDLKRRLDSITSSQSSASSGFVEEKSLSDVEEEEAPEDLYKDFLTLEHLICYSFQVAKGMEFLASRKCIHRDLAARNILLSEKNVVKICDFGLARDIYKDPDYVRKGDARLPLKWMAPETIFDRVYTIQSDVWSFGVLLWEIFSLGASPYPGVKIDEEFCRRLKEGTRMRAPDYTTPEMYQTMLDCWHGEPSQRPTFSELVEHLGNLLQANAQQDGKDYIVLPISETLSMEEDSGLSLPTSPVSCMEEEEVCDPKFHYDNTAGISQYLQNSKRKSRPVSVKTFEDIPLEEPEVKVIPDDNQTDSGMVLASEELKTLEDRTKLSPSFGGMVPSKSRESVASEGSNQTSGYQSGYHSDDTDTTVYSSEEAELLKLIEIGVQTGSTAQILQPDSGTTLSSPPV

Compound | IC50 (VEGFR2) | IC50 [1] | IC50 (PDGFRβ)
COC(=O)C1CCCN1CCCNC(=O)c1cc2nccc(Oc3ccc(NC(=O)Nc4cc(C)ccc4F)c(F)c3)c2s1 (stereo not drawn) [Example 42, methyl 1-{3-[({7-[3-fluoro-4-({[(2-fluoro-5-methylphenyl)amino]carbonyl}amino)phenoxy]thieno[3,2-b]pyridin-2-yl}carbonyl)amino]propyl}pyrrolidine-2-carboxylate] | 4 nM | 6 nM | –
COC(=O)c1cc2nccc(Oc3cccc(NC(=O)Nc4cc(C)ccc4F)c3)c2s1 [Compound F3, Methyl 7-[3-({[(2-fluoro-5-methylphenyl)amino]carbonyl}amino)phenoxy]thieno[3,2-b]pyridine-2-carboxylate] | 35 nM | 21 nM | –
Cc1ccc(F)c(NC(=O)Nc2ccc(Oc3ccnc4cc(C(=O)NCCCNC(=O)OC(C)(C)C)sc34)cc2F)c1 [Example 44, tert-butyl {3-[({7-[3-fluoro-4-({[(2-fluoro-5-methylphenyl)amino]carbonyl}amino)phenoxy]thieno[3,2-b]pyridin-2-yl}carbonyl)amino]propyl}carbamate] | 16 nM | 11 nM | –
Cc1ccc(F)c(NC(=O)Nc2ccc(Oc3ccnc4cc(C(=O)NCCC(=O)O)sc34)cc2F)c1 [Compound F7, 3-[({7-[3-fluoro-4-({[(2-fluoro-5-methylphenyl)amino]carbonyl}amino)phenoxy]thieno[3,2-b]pyridin-2-yl}carbonyl)amino]propanoic acid] | – | 10 nM | –
Cc1ccc(F)c(NC(=O)Nc2ccc(Oc3ccnc4cc(C(=O)NCCCN5CCCC5)sc34)cc2F)c1 [Example 43, 7-[3-fluoro-4-({[(2-fluoro-5-methylphenyl)amino]carbonyl}amino)phenoxy]-N-(3-pyrrolidin-1-ylpropyl)thieno[3,2-b]pyridine-2-carboxamide] | 6 nM | 3 nM | –
Cc1ccc(F)c(NC(=O)Nc2ccc(Oc3ccnc4cc(C(=O)N=S(C)(C)=O)sc34)cc2)c1 [Example 61, N-[dimethyl(oxido)-lambda˜4˜-sulfanylidene]-7-[4-({[(2-fluoro-5-methylphenyl)amino]carbonyl}amino)phenoxy]thieno[3,2-b]pyridine-2-carboxamide] | – | 2 nM | –
Cc1ccc(F)c(NC(=O)Nc2ccc(Oc3ccnc4cc(C(=O)NCCC(=O)O)sc34)cc2)c1 [Compound F6, 3-[({7-[4-({[(2-fluoro-5-methylphenyl)amino]carbonyl}amino)phenoxy]thieno[3,2-b]pyridin-2-yl}carbonyl)amino]propanoic acid] | – | 11 nM | –
COC(=O)[C@@H]1C[C@@H](O)CN1CCCNC(=O)c1cc2nccc(Oc3ccc(NC(=O)Nc4cc(C)ccc4F)cc3)c2s1 (relative stereo) [Example 17, methyl rel-(2R,4S)-1-{3-[({7-[4-({[(2-fluoro-5-methylphenyl)amino]carbonyl}amino)phenoxy]thieno[3,2-b]pyridin-2-yl}carbonyl)amino]propyl}-4-hydroxypyrrolidine-2-carboxylate] | – | 4 nM | –
Cc1ccc(F)c(NC(=O)Nc2ccc(Oc3ccnc4cc(C(=O)N=S(C)(C)=O)sc34)cc2F)c1 [Example 58, N-[dimethyl(oxido)-lambda˜4˜-sulfanylidene]-7-[3-fluoro-4-({[(2-fluoro-5-methylphenyl)amino]carbonyl}amino)phenoxy]thieno[3,2-b]pyridine-2-carboxamide] | – | 3 nM | –
Cc1ccc(F)c(NC(=O)Nc2ccc(Oc3ccnc4cc(C(=O)N[C@@H](CCC(=O)OC(C)(C)C)C(=O)O)sc34)cc2F)c1 [Example 48, (2S)-5-tert-butoxy-2-[({7-[3-fluoro-4-({[(2-fluoro-5-methylphenyl)amino]carbonyl}amino)phenoxy]thieno[3,2-b]pyridin-2-yl}carbonyl)amino]-5-oxopentanoic acid] | – | 7 nM | –
Cc1ccc(F)c(NC(=O)Nc2ccc(Oc3ccnc4cc(C(=O)NCCCO)sc34)cc2F)c1 [Example 53, 7-[3-fluoro-4-({[(2-fluoro-5-methylphenyl)amino]carbonyl}amino)phenoxy]-N-(3-hydroxypropyl)thieno[3,2-b]pyridine-2-carboxamide] | – | 12 nM | –
Cc1ccc(F)c(NC(=O)Nc2ccc(Oc3ccnc4cc(C(=O)O)sc34)cc2F)c1 [Compound F8, 7-[3-fluoro-4-({[(2-fluoro-5-methylphenyl)amino]carbonyl}amino)phenoxy]thieno[3,2-b]pyridine-2-carboxylic acid] | – | 11 nM | –

Other lines, results leading:

IC50 (VEGFR2) | IC50 [1] | IC50 (PDGFRβ) | Compound
– | 11 nM | 146 nM | Cc1ccoc1C(=O)Nc1cccc(Oc2ccnc3cc(C(=O)NCCCO)sc23)c1 [Example 76, N-(3-hydroxypropyl)-7-{3-[(3-methyl-2-furoyl)amino]phenoxy}thieno[3,2-b]pyridine-2-carboxamide]
– | 17 nM | 392 nM | Cc1ccoc1C(=O)Nc1cccc(Oc2ccnc3cc(C(=O)NCCO)sc23)c1 [Example 77, N-(2-hydroxyethyl)-7-{3-[(3-methyl-2-furoyl)amino]phenoxy}thieno[3,2-b]pyridine-2-carboxamide]
– | 19 nM | 273 nM | COCCOC(=O)c1cc2nccc(Oc3cccc(NC(=O)c4occc4C)c3)c2s1 [Example 81, 2-methoxyethyl 7-{3-[(3-methyl-2-furoyl)amino]phenoxy}thieno[3,2-b]pyridine-2-carboxylate]
– | 27 nM | 424 nM | CCN(CC)C(=O)c1cc2nccc(Oc3cccc(NC(=O)c4occc4C)c3)c2s1 [Example 74, N,N-diethyl-7-{3-[(3-methyl-2-furoyl)amino]phenoxy}thieno[3,2-b]pyridine-2-carboxamide]
– | 24 nM | 169 nM | COC(=O)c1cc2nccc(Oc3cccc(NC(=O)c4occc4C)c3)c2s1 [Example 71, Methyl 7-{3-[(3-methyl-2-furoyl)amino]phenoxy}thieno[3,2-b]pyridine-2-carboxylate]
– | 11 nM | 238 nM | COC(=O)CNCCCNC(=O)c1cc2nccc(Oc3cccc(NC(=O)c4occc4C)c3)c2s1 [Example 82, Methyl [(3-{[(7-{3-[(3-methyl-2-furoyl)amino]phenoxy}thieno[3,2-b]pyridin-2-yl)carbonyl]amino}propyl)amino]acetate]
– | 9 nM | 191 nM | CCNC(=O)c1cc2nccc(Oc3cccc(NC(=O)c4occc4C)c3)c2s1 [Example 73, N-ethyl-7-{3-[(3-methyl-2-furoyl)amino]phenoxy}thieno[3,2-b]pyridine-2-carboxamide]
– | 17 nM | 212 nM | Cc1ccoc1C(=O)Nc1cccc(Oc2ccnc3cc(C(=O)OCCO)sc23)c1 [Example 80, 2-hydroxyethyl 7-{3-[(3-methyl-2-furoyl)amino]phenoxy}thieno[3,2-b]pyridine-2-carboxylate]
– | 9 nM | 146 nM | Cc1ccoc1C(=O)Nc1cccc(Oc2ccnc3cc(C(=O)OCCCO)sc23)c1 [Example 79, 3-hydroxypropyl 7-{3-[(3-methyl-2-furoyl)amino]phenoxy}thieno[3,2-b]pyridine-2-carboxylate]
– | 14 nM | 323 nM | Cc1ccoc1C(=O)Nc1cccc(Oc2ccnc3cc(C(=O)NCCc4nn[nH]n4)sc23)c1 [Example 78, 7-{3-[(3-methyl-2-furoyl)amino]phenoxy}-N-[2-(2H-tetrazol-5-yl)ethyl]thieno[3,2-b]pyridine-2-carboxamide]
